Molecules are shown by their SMILES.

Data on 4 compounds can be found in patent US20200056157A1, “LIVER ORGANOID DISEASE MODELS AND METHODS OF MAKING AND USING SAME” (Children's Hospital Medical Center, priority 2016, published 2020).

The subject of series [1] is human liver organoid (HLO). Nature of the series: HLO stiffness measurement by AFM. The class given is cell-based. The text has this: Applicant's preliminary qualitative analysis of smooth muscle actin immunostaining indicates dose dependent fibrosis progression by OA exposure (FIG. 2, H, I, and J). To gain more quantitative insights in a screenable format, Applicant thus assessed in the living state whether HLO fibrosis could increase the stiffness in a dose dependent fashion using micro-indentation with Atomic Force Microscopy (AFM). […] The Emedian values were 1.2 kPa, 1.6 kPa, 2.4 kPa and 2.8 kPa for 0, 200, 400, and 800 μM OA-treated organoids, respectively. Furthermore, difference between 90th percentile and 10th percentile (ΔP90-10) was 3.2 kPa for untreated organoids and 7.0 kPa for 800 μM OA-treated organoids was observed.
HLO stiffness measurement by AFM. HLOs treated with […] were used for stiffness measurement with a AFM (NanoWizard IV, JPK Instruments, Germany). The AFM head with a silicon nitride cantilever (CSC37, k=0.3 N/m, MikroMasch, Bulgaria) was mounted on a fluorescence stereo microscope (M205 FA, Leica, Germany) coupled with a Z-axis piezo stage (JPK CellHesion module, JPK Instruments, Germany), which allows the indentation measurement up to the depth of ˜100 μm. As a substrate for organoids, a fibronectin-coated dish was used. The tissue culture dish (p=34 mm, TPP Techno Plastic Products, Switzerland) was first incubated with a 1 μg/mL fibronectin solution (Sigma)) at 4° C. for overnight. Then, the tissue culture dish was washed twice by distilled water and dried for 1 hour. Thereafter, HLOs incubated with […] were deposited to the fibronectin-coated dish and incubated for 1 hour at 37° C. The sample dish was then placed onto the AFM stage, and force-distance curves in a 14×14 matrix in a 25×25 μm square were measured from each HLO. Finally, Young's moduli (E, Pa) of HLO were determined by fitting the obtained force-distance curves with the modified Hertz model (Sneddon, 1965). Dunn-Holland-Wolfe test was performed for significance testings.

The next series deals with IL-6. The series is described as follows: IL-6 ELISA of HLO culture supernatant. The class given is cell-based, human. Conditions: 800 μM OA treated sHLO culture media. As for the experimental part:
(§1) Albumin, IL-6, and P3NP ELISA. To measure albumin secretion level of HLO, 200 μL of culture supernatant was collected from HLO embedded in Matrigel. For IL-6 and P3NP, 20-30 organoids were seeded and cultured on an ultra-low attachment multiwell plates 96 well plate (Corning). To define the exact number of organoids in each well and lastly normalize the secreted level for IL-6 and P3NP by the number, the organoids were captured on The KEYENCE BZ-X710 Fluorescence Microscope. The culture supernatants were collected at 24 hrs (for albumin), 96 hrs (for IL-6) and 120 hrs (P3NP) time points after the culture and stored at −80° C. until use. The supernatant was centrifuged at 1,500 rpm for 3 min and to pellet debris, and the resulting supernatant was assayed with Human Albumin ELISA Quantitation Set (Bethyl Laboratories, Inc., TX, USA), Human IL-6 ELISA Kit (Biolegend, CA, USA), and Human N-terminal procollagen III propeptide, PIIINP ELISA Kit (My BioSource, CA, USA) according to the manufacturer's instructions. Significance testing was conducted by Student's t-test.
A general note: An ELISA detects its analyte on a solid surface through an enzyme-linked reagent.

For series [2], the system named is human liver organoid (HLO). The series is described as follows: Lipids live-cell imaging (BODIPY, membrane dye) of FFA treated HLO. The class given is cell-based. Conditions: for effectiveness in inducing lipid accumulation among FFAs (OA, LA, PA, SA): 800 μM, 3 days after FFA exposure, BODIPY. An excerpt: Currently, free fatty acids (FFA) are widely used as an initiating factor to establish an in vitro lipotoxic hepatocyte model; however, fat accumulation is the only phenotype (Kanuri and Bergheim, 2013). […] Given the presence of hepatocyte-, stellate- and Kupffer-like cells with lipid metabolism function-associated genes indicated by global transcriptome analysis, Applicant hypothesized that FFA exposure naturally triggers an inflammation response and resulting fibrotic response in HLO. To test this hypothesis, Applicant treated HLO for 3 to 5 days with FFA. […] To first compare the effect of multiple FFAs including oleic acid (OA, 18:1 n9), linoleic acid (LA, 18:2), palmitic acid (PA, 16:0), and stearic acid (SA, 18:0) on lipids accumulation, live-cell imaging was performed with lipid dye BODIPY at 3 days after the FFA exposure. […] Considering that OA triggers massive lipid accumulation, the concentration of OA was varied (0, 200, 400, and 800 μM) to trigger inflammatory reaction in sHLO. […] In addition to increase in lipid accumulation, the size of lipid droplets was enlarged (FIG. 4, B). Hepatocyte ballooning (enlargement) was one of the pathological grading indicators to determine the nonalcoholic steatohepatitis (NASH) activity (NAS scoring), which was confirmed in 800 μM OA treated sHLO by live imaging of cellular membrane (FIG., 4B). Triglycerides, a main constituent of lipids accumulated in the liver, were also detected in 800 μM treated sHLO, but not in untreated sHLO (FIG. 4, D). […] As FIG. 9 indicates, neither E-cad positive nor negative cells derived spheroids produced P3NP and IL-6 secreted production and overexpressed the gene expression of inflammatory markers.
(§2) Phagocyte, lipids, ROS live-cell imaging. After being cultured in an ultra-low attachment 6 multi-well plate, 5-10 HLO were picked up and seeded in a Microslide 8 Well Glass Bottom plate (Ibidi, WI, USA) and subjected to live-cell staining. The following antibodies were used: pHrodo® Red S. aureus Bioparticles® Conjugate for Phagocyte activity (Thermo Fisher Scientific Inc.), BODIPY® 493/503 for lipids (Thermo Fisher Scientific Inc.), Di-8-ANEPPS for membrane (Thermo Fisher Scientific Inc.), and CellROX green reagent for ROS detection (Thermo Fisher Scientific Inc.). […] The final lipid droplet volume was calculated by IMARIS8 and normalized by each organoid size. Significance testing for lipid droplet volume and ROS production (%) was conducted by Student's t-test.
LPS and FFA exposure and OCA and FGF19 treatment. 20-30 HLO, which had been isolated from Matrigel and washed by 1×PBS, were divided into each condition and cultured on an ultra-low attachment 6 multi-well plates (Corning). HLO were cultured with LPS (Sigma), OA (Sigma), LA (Sigma), SA (Sigma), or PA (Sigma) and collected at day 1 and 3 (for LPS HLO) and at day 3 and 5 (for OA) after the culture. To test the inhibitory effect of OCA (INT-747, MedChem Express, NJ, USA) and human FGF19 recombinant (Sigma) on HLO, 20-30 HLO were cultured in HCM media in the presence or absence of oleic acid (800 μM), and 1 μM OCA and 40 ng/ml FGF19 were added into 800 μM OA condition. HLO were collected at day 3 for lipids live-cell imaging and at day 5 for stiffness measurement.

Another series has as its system THP-1. Nature of the series: THP-1 cell migration assay with HLO conditioned media. It is filed as cell-based, human. The settings on record: OA-treated sHLO conditioned media (400, 800 μM OA), 24 hrs in transwells. As for the experimental part: THP-1 cell migration assay. THP-1 cell, which was gifted from T. Suzuki, was maintained in Advanced DMEM/F12 (Thermo Fisher Scientific Inc.) containing 10% FBS. THP-1 floating cells were collected, and 200,000 cells were added with serum-free Advanced DMEM/F12 to the membrane chamber of the CytoSelect™ 96-Well Cell Migration Assay (5 μm, Fluorometric Format; Cell Biolabs, CA, USA). 10-20 HLO were cultured in HCM media including 0, 400, 800 uM OA with an ultra-low attachment 96 multi-well plate (Corning) for three days. To define the exact number of organoids in each well and lastly normalize the final migrated cells by the number, the organoids were captured on The KEYENCE BZ-X710 Fluorescence Microscope. 150 μL of culture supernatant of HLO was collected and added to the feeder tray of the kit. The kit was incubated at 37° C. for 24 h in a 5% CO2 cell culture incubator. Cells that had migrated were counted using Countess II FL Automated Cell Counter (Thermo Fisher Scientific Inc.). Significance testing was conducted by Student's t-test.

Series [3] concerns human liver organoid (HLO). Nature of the series: Masson trichrome stain of HLO. It is filed as cell-based. The protocol: To further determine whether HLO progresses towards fibrosis-like condition, Applicant performed Masson trichrome stain on sHLO and cHLO. […] Moreover, ELISA of […] was also measured at day 5 of OA exposure. […] secretion was increased 2.8-fold in the culture media of 800 μM OA treated HLO when compared with the untreated (FIG. 4, J).

For series [4], the system named is human liver organoid (HLO). The series is described as follows: Triglyceride assay. The class given is cell-based. The settings on record: 800 μM OA, 3 days. As for the experimental part: Triglyceride assay. For quantitative determination of triglycerides, HLO were isolated from one Matrigel drop and divided into HCM media in the presence or absence of oleic acid (800 μM). They were cultured on an ultra-Low attachment 6 multi-well plate for three days. Quantitative estimation of hepatic triglyceride accumulation was performed by an enzymatic assay of triglyceride mass using the EnzyChrom Triglyceride assay kit (Bioassay Systems, CA, USA).

The next series relates to IL-8. The series is described as follows: RT-qPCR of pro-inflammatory cytokine IL-8 in HLO. The class given is cell-based, human. The settings on record: 200 μM or 800 μM OA, normalized by 18S. As for the experimental part:
(§3) RNA isolation, RT-qPCR. RNA was isolated using the RNeasy mini kit (Qiagen, Hilden, Germany). Reverse transcription was carried out using the SuperScriptIII First-Strand Synthesis System for RT-PCR (Invitrogen, CA, USA) according to manufacturer's protocol. qPCR was carried out using TaqMan gene expression master mix (Applied Biosystems) on a QuantStudio 3 Real-Time PCR System (Thermo Fisher Scientific Inc.). All primers and probe information for each target gene was obtained from the Universal ProbeLibrary Assay Design Center (https://qpcr.probefinder.com/organism.jsp). Significance testing was conducted by Student's t-test.

The test system of a further series is P3NP. Nature of the series: P3NP ELISA of HLO culture supernatant. It is filed as cell-based, human. Conditions: 800 μM OA, day 5. The protocol: as §1
Another series concerns TNF-alpha. Nature of the series: RT-qPCR of pro-inflammatory cytokine TNF-alpha in HLO. The class given is cell-based, human. Conditions: 200 μM or 800 μM OA, normalized by 18S. The protocol: as §3
A general note: Real-time PCR tracks product formation cycle by cycle.

Series [5] has as its system human iPSC-liver organoid. The series is described as follows: Albumin ELISA of organoid culture supernatant. The class given is cell-based. Conditions: 4 days RA; supernatant collected in 24 hrs. The protocol: as §1
Series [6] concerns human iPSC-liver organoid. The series is described as follows: RA-based liver organoid differentiation (organoid number, size, luminal structure). The settings on record: 4 days RA. It is filed as cell-based. The text has this: To elucidate whether RA signaling has an impact on determining the lineage differentiation towards stromal cells, Applicant established a liver organoid model from human iPSCs by transient induction of RA. Applicant initially differentiated iPSCs to foregut spheroids through definitive endoderm (DE) specification as previously described (Spence et al., 2011). The foregut spheroids were mixed with the attached cells grown in the same well, and the mixture was embedded in Matrigel. […] The number of organoids was increased 1.8-fold in RA treated wells compared to untreated and the size was increased 1.5-fold after RA treatment (FIG. 1, B, C, and D). […] Of note, albumin secretion was maintained more than 40 days after day 20 when albumin was first detected (data not shown).
HLO induction. At day 7, spheroids and attached cells are gently pipetted to be delaminated from dishes. They were centrifuged at 800 rpm for 3 minutes, embedded in a 100% Matrigel drop on the dishes in Advanced DMEM/F12 with B27, N2 and 2 uM retinoic acid (RA; Sigma, MO, USA) after removing supernatant, and cultured for 4 days. After RA treatment, spheroids embedded in the Matrigel drop were cultured in Hepatocytes Culture Medium (HCM; Lonza, MD, USA) with 10 ng/mL hepatocyte growth factor (HGF; PeproTech, NJ, USA), 0.1 uM Dexamethasone (Dex; Sigma) and 20 ng/mL Oncostatin M (OSM; R&D Systems). Cultures for HLO induction were maintained at 37° C. in 5% CO2 with 95% air and the medium was replaced every 2-3 days. To analyze HLO (day 20-30), organoids were isolated from Matrigel by scratching and pipetting.

The subject of the next series is liver organoids. The series is described as follows: ROS live-cell imaging of liver organoids. The class given is cell-based, human.
Source text: as §2

Take `CCCCCCCC/C=C\CCCCCCCC(=O)O` [OA, oleic acid]: the figures for the “Young's modulus, Emedian” value in series [1] (200 μM OA), in [1] (400 μM OA) and in series [1] (800 μM OA) were 1.6 kPa, 2.4 kPa and 2.8 kPa, respectively. Also, the “difference between 90th percentile and 10th percentile (ΔP90-10) of Young's modulus” value in series [1] (800 μM OA) amounted to 7.0 kPa. Besides, the “IL-6 secretion compared to the untreated” value in the series on IL-6 is 2.2 fold. The “lipid accumulation, increase in sHLO” value in series [2] (0, 200, 400, 800 μM OA, 3 days, dose dependent) is “up to 18 fold”. For the same compound, in series [2] (800 μM OA treated sHLO, live imaging of cellular membrane), the “hepatocyte ballooning (enlargement)” value is reported as “confirmed”. The “effectiveness in inducing lipid accumulation among FFAs (OA, LA, PA, SA)” value in [2] is recorded as “most effective”. In series [2] (OA treated sHLO, 3 days), the “size of lipid droplets” value is “enlarged”. In the series with THP-1, the “THP-1 migration cells, increase” value was “up to 2 fold”. The “trichrome positive HLO” value in series [3] (cHLO (OA 5 days)) was “significantly increased”; in series [3] (sHLO (OA 3 days)), “not observed”. Besides, the triglycerides result in [4] was “detected”. For the same compound, in the series with IL-8, the “IL-8 gene expression increase” value amounted to 10 fold. The “P3NP secretion compared with the untreated” value in the series with P3NP is reported as 2.8 fold. For the same compound, the “TNF-alpha gene expression increase” value with TNF-alpha is 2 fold.
As to `CC1=C(/C=C/C(C)=C/C=C/C(C)=C/C(=O)O)C(C)(C)CCC1` [RA, retinoic acid], the albumin secretion in [5] lay within 3.0 to 6.5 µg/mL. In series [6] (day 20), the “number of organoids, increase compared to untreated” value is listed as 1.8 fold and the “organoid size, increase after treatment” value was 1.5 fold. In series [6] (day 25), the “organoids with internal luminal structure” value stood at 95%.
Consider `CCCCCCCCCCCCCCCCCC(=O)O` [SA, stearic acid], for which, in [2], the “effectiveness in inducing lipid accumulation among FFAs (OA, LA, PA, SA)” value is given as “least effective”.
For `Oc1ccc(C=Cc2cc(O)cc(O)c2)cc1` [resveratrol], the “effect on ROS production of liver organoids” value in the series with liver organoids was “No effectiveness”.
